In the RepoRT retention time repository:

assay: HILIC, Waters Atlantis Premier BEH Z-HILIC, 100 × 2.1 mm, 1.7 µm, 40 °C, 0.15 mL/min, estimated dead time 1.5 min; A: water + 20 mM ammonium carbonate + 5 µM medronic acid; B: 10% water + 90% acetonitrile + 2 mM ammonium carbonate + 0.5 µM medronic acid; gradient (min/%B) 0/95 18/60 18.1/20 21.5/20 22/95 23.5/95 25.5/95; settings: stereoisomer not certain

LC retention time | SMILES
10.9 min | O=P(O)(O)OCC(O)CO (stereo not given) [Glycerol-3-phosphate]
12.2 min | O=C(CO)C(O)C(O)C(O)COP(=O)(O)O (stereo not given) [Fructose 6-phosphate]
6.75 min | CCC(=O)OC(CC(=O)[O-])C[N+](C)(C)C (stereo not given) [carnitine-C3]
10.8 min | O=C(CO)COP(=O)(O)O [Triose phosphate]
6.18 min | CC(C)CC(N)C(=O)O (stereo not given) [Leucine]
14.4 min | C=C(OP(=O)(O)O)C(=O)O [PEP]
10.5 min | CC(=O)NC1C(OP(=O)(O)OP(=O)(O)OCC2OC(n3ccc(=O)[nH]c3=O)C(O)C2O)OC(CO)C(O)C1O (stereo not given) [UDP-GlcNAc]
9.44 min | O=C(O)CCC(=O)C(=O)O [2-Oxoglutaric acid]
13.4 min | O=C(O)C(CO)OP(=O)(O)O (stereo not given) [Phosphoglyceric acid A]
14.3 min | Nc1ncnc2c1ncn2C1OC(COP(=O)(O)OP(=O)(O)OP(=O)(O)O)C(O)C1O (stereo not given) [ATP]
17.2 min | Nc1nc2c(ncn2C2OC(COP(=O)(O)OP(=O)(O)OP(=O)(O)O)C(O)C2O)c(=O)[nH]1 (stereo not given) [GTP]
10.3 min | NC(CCC(=O)O)C(=O)O (stereo not given) [Glutamic acid]
12.9 min | CC(C)(COP(=O)(O)OP(=O)(O)OCC1OC(n2cnc3c(N)ncnc32)C(O)C1OP(=O)(O)O)C(O)C(=O)NCCC(=O)NCCS (stereo not given) [CoenzymeA]
10.9 min | NC(=O)c1ccc[n+](C2OC(COP(=O)(O)OP(=O)(O)OCC3OC(n4cnc5c(N)ncnc54)C(O)C3O)C(O)C2O)c1 (stereo not given) [NAD]
4.65 min | O=C1CC(C(=O)O)NC(=O)N1 (stereo not given) [dihydroorotic acid]
10.9 min | CC(=O)SCCNC(=O)CCNC(=O)C(O)C(C)(C)COP(=O)(O)OP(=O)(O)OCC1OC(n2cnc3c(N)ncnc32)C(O)C1OP(=O)(O)O (stereo not given) [Acetyl-CoA]
12.2 min | Nc1ncnc2c1ncn2C1OC(COP(=O)(O)OP(=O)(O)O)C(O)C1O (stereo not given) [ADP]
10.1 min | O=C(O)CCC(=O)O [Succinic Acid]

LC retention time | SMILES
10.4 min | C[N+](C)(C)CC(O)CC(=O)[O-] (stereo not given) [Carnitine]
15 min | NC(=O)C1=CN(C2OC(COP(=O)(O)OP(=O)(O)OCC3OC(n4cnc5c(N)ncnc54)C(OP(=O)(O)O)C3O)C(O)C2O)C=CC1 (stereo not given) [NADPH]
10 min | O=C(O)CCC(O)C(=O)O (stereo not given) [2-hydroxy glutaric acid]
16.9 min | O=P(O)(O)OCC1OC(O)(COP(=O)(O)O)C(O)C1O (stereo not given) [Fructose-1,6-bisphosphate]
4.54 min | O=C(O)CCCCC1SCC2NC(=O)NC21 (stereo not given) [Biotin]
4.12 min | Nc1ncnc2c1ncn2C1OC(CO)C(O)C1O (stereo not given) [Adenosine]
9.98 min | Nc1ncnc2c1ncn2C1OC(COP(=O)(O)O)C(O)C1O (stereo not given) [AMP]
3.43 min | CC(O)C(=O)O (stereo not given) [Lactic Acid]
6.62 min | CCC(C)C(N)C(=O)O (stereo not given) [Isoleucine]
7.66 min | Cc1cc2nc3c(=O)[nH]c(=O)nc-3n(CC(O)C(O)C(O)COP(=O)(O)OP(=O)(O)OCC3OC(n4cnc5c(N)ncnc54)C(O)C3O)c2cc1C (stereo not given) [FAD]
7.88 min | OCC1OC(O)C(O)C(O)C1O (stereo not given) [Hexose]
13.3 min | O=P(O)(O)OCC1OC(O)C(O)C(O)C1O (stereo not given) [Glucose-6-phosphate]
14.4 min | NC(=O)c1ccc[n+](C2OC(COP(=O)(O)OP(=O)(O)OCC3OC(n4cnc5c(N)ncnc54)C(OP(=O)(O)O)C3O)C(O)C2O)c1 (stereo not given) [NADP]
9.07 min | NC(=O)C1=CN(C2OC(COP(=O)(O)OP(=O)(O)OCC3OC(n4cnc5c(N)ncnc54)C(O)C3O)C(O)C2O)C=CC1 (stereo not given) [NADH]
14.8 min | O=C(O)CC(O)(CC(=O)O)C(=O)O [Citric acid]
11 min | NC(=O)CCC(N)C(=O)O (stereo not given) [Glutamine]
14.6 min | O=C(O)CC(C(=O)O)C(O)C(=O)O (stereo not given) [Isocitric acid]
